Measured values taken from US10214542B2, “Modified macrocyclic compounds” (BAYER PHARMA AKTIENGESELLSCHAFT, priority 2015, dated 2019).
Marks after values point to notes of the source that are not given here.

Tests used:
[1] = biological target: T1, CDK2/CycE (Homo sapiens, UniProt P24941); assay: CDK2/CycE high ATP kinase assay (TR-FRET, Method 2b); assay type: biochemical; settings: 2 mM ATP
T1 construct: GST; purchased ProQinase GmbH (Freiburg, Germany); host or cells: insect cells (Sf9)
Description: 2b. CDK2/CycE High ATP Kinase Assay:
CDK2/CycE-inhibitory activity of compounds of the present invention at 2 mM adenosine-tri-phosphate (ATP) was quantified employing the CDK2/CycE TR-FRET (TR-FRET=Time Resolved Fluorescence Resonance Energy Transfer) assay as described in the following paragraphs.
Recombinant fusion proteins of GST and human CDK2 and of GST and human CycE, expressed in insect cells (Sf9) and purified by Glutathion-Sepharose affinity chromatography, were purchase from ProQinase GmbH (Freiburg, Germany). As substrate for the kinase reaction biotinylated peptide biotin-Ttds-YISPLKSPYKISEG (C-terminus in amid form) was used which can be purchased e.g. from the company JERINI peptide technologies (Berlin, Germany).
(§1) For the assay 50 nl of a 100 fold concentrated solution of the test compound in DMSO was pipetted into a black low volume 384 well microtiter plate (Greiner Bio-One, Frickenhausen, Germany), 2 μl of a solution of CDK2/CycE in aqueous assay buffer [50 mM Tris/HCl pH 8.0, 10 mM MgCl2, 1.0 mM dithiothreitol, 0.1 mM sodium ortho-vanadate, 0.01% (v/v) Nonidet-P40 (Sigma)] were added and the mixture was incubated for 15 min at 22° C. to allow pre-binding of the test compounds to the enzyme before the start of the kinase reaction. Then the kinase reaction was started by the addition of 3 μl of a solution ATP (3.33 mM=>final conc. in the 5 μl assay volume is 2 mM) and substrate (1.25 μM=>final conc. in the 5 μl assay volume is 0.75 μM) in assay buffer and the resulting mixture was incubated for a reaction time of 25 min at 22° C. The concentration of CDK2/CycE was adjusted depending of the activity of the enzyme lot and was chosen appropriate to have the assay in the linear range, typical concentrations were in the range of 15 ng/ml. The reaction was stopped by the addition of 5 μl of a solution of TR-FRET detection reagents (0.2 μM streptavidine-XL665 [Cisbio Bioassays, Codolet, France] and 1 nM anti-RB(pSer807/pSer811)-antibody from BD Pharmingen [#558389] and 1.2 nM LANCE EU-W1024 labeled anti-mouse IgG antibody [Perkin-Elmer, product no. AD0077, as an alternative a Terbium-cryptate-labeled anti-mouse IgG antibody from Cisbio Bioassays can be used]) in an aqueous EDTA-solution (100 mM EDTA, 0.2% (w/v) bovine serum albumin in 100 mM HEPES pH 7.5).
(§2) The resulting mixture was incubated 1 h at 22° C. to allow the formation of complex between the phosphorylated biotinylated peptide and the detection reagents. Subsequently the amount of phosphorylated substrate was evaluated by measurement of the resonance energy transfer from the Eu-chelate to the streptavidine-XL. Therefore, the fluorescence emissions at 620 nm and 665 nm after excitation at 350 nm were measured in a TR-FRET reader, e.g. a Rubystar (BMG Labtechnologies, Offenburg, Germany) or a Viewlux (Perkin-Elmer). The ratio of the emissions at 665 nm and at […] was taken as the measure for the amount of phosphorylated substrate. The data were normalised (enzyme reaction without inhibitor=0% inhibition, all other assay components but no enzym=100% inhibition).

[2] = biological target: T2, CDK9/CycT1 (Homo sapiens, UniProt P50750); assay: CDK9/CycT1 high ATP kinase assay (TR-FRET, Method 1b); assay type: biochemical; settings: 2 mM ATP
T2 construct: Recombinant full-length His-tagged human CDK9 and CycT1; His; purchased Invitrogen PV4131; host or cells: insect cells
T2 sequence (P50750 whole entry): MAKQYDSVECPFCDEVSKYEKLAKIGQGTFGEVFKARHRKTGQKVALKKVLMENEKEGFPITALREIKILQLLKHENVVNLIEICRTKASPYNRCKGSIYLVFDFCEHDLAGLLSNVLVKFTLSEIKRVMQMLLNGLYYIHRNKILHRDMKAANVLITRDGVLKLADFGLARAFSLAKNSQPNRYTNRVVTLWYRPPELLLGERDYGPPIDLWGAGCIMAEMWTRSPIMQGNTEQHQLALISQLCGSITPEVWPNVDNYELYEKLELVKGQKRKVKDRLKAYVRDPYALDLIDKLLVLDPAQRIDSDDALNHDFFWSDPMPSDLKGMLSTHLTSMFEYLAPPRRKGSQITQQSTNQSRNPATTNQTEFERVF
T2 sequence (O60563 whole entry partner): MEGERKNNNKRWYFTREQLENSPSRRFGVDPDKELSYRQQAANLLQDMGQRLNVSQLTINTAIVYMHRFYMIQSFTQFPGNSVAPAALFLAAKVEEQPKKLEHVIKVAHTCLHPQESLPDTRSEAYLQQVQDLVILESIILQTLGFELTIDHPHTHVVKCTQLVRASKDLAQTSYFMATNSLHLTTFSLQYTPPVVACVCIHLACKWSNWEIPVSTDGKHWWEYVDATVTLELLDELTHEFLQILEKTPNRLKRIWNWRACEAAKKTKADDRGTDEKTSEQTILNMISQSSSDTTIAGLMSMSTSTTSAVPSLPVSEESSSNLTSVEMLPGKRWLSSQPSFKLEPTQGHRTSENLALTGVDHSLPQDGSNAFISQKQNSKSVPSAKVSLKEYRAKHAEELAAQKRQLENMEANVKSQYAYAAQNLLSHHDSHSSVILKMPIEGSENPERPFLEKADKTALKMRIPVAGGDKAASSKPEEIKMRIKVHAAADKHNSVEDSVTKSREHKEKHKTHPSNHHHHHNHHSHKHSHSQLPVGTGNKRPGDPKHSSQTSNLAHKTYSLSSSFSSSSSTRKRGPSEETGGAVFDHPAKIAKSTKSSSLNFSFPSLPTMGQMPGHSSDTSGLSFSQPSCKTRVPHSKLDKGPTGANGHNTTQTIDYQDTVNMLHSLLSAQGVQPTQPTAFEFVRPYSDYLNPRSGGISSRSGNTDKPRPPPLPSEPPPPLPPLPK
Description: 1b. CDK9/CycT1 High ATP Kinase Assay
CDK9/CycT1-inhibitory activity of compounds of the present invention at a high ATP concentration after preincubation of enzyme and test compounds was quantified employing the CDK9/CycT1 TR-FRET assay as described in the following paragraphs.
Recombinant full-length His-tagged human CDK9 and CycT1, expressed in insect cells and purified by Ni-NTA affinity chromatography, were purchase from Invitrogen (Cat. No PV4131). As substrate for the kinase reaction biotinylated peptide biotin-Ttds-YISPLKSPYKISEG (C-terminus in amid form) was used which can be purchased e.g. from the company JERINI peptide technologies (Berlin, Germany).
as §1, with “CDK9/CycT1” for “CDK2/CycE”, “Then the kinase reaction was started by the addition of 3 μl of a solution ATP (3.33 mM=>final conc. in the 5 μl assay volume is 2 mM) and substrate (1.25 μM=>final conc. in the 5 μl assay volume is 0.75 μM) in assay buffer and the resulting mixture was incubated for a reaction time of 25 min at 22° C.” left out, “0.5 μg/mL.” for “15 ng/ml.”, “AD0077])” for “AD0077, as an alternative a Terbium-cryptate-labeled anti-mouse IgG antibody from Cisbio Bioassays can be used])”
as §2, with “nm was” for “nm were”, “a HTRF” for “a TR-FRET”

[3] = biological target: T3, human PTEFb (CDK9/Cyclin T1) (Homo sapiens, UniProt P50750); assay: Surface Plasmon Resonance PTEFb (Method 8); assay type: binding; settings: 37° C., experimental parameters E
T3 construct: purchased ProQinase, Freiburg, Germany
T3 sequence (P50750 whole entry): as the sequence (P50750 whole entry) above
T3 sequence (O60563 whole entry partner): as the sequence (O60563 whole entry partner) above

[4] = in vivo; cited from earlier work

Row | SMILES | IC50 [1] | IC50 ([2]; Method 1b) | Selectivity high ATP CDK9 over high ATP CDK2: IC50 (high ATP CDK2)/IC50 (high ATP CDK9) ([2]; Methods 1b and 2b) | Target resident time ([3]; 1/koff) | koff ([3]; read-out: Dissociation rate constant koff) | duration of protection against bronchospasms [4]
1 | CS(=N)(=O)Cc1cc2cc(c1)Nc1ncc(F)c(n1)-c1ccc(F)cc1OCCCCN2 (racemic) [Example 25, (rac)-16,20-difluoro-9-[(S-methylsulfonimidoyl)methyl]-3,4,5,6-tetrahydro-2H,12H-13,17-(azeno)-11,7-(metheno)-1,6,12,14-benzoxatriazacyclononadecine] | 742 nM | 3.3 nM | 224 | 14.7* min | 0.00113 s⁻¹ | –
2 | C[N+]1(C)[C@@H]2C[C@@H](OC(=O)C(O)(c3cccs3)c3cccs3)C[C@H]1[C@@H]1O[C@@H]12 [tiotropium] | – | – | – | – | – | more than 6 hours
